# Patent publication US20070049564A1 (Wyeth, priority 2005, published 2007)
# Like-named read-outs stand apart in the source and are kept apart here.
# Legend:
# S. aureus GC 6466 = experiment: MIC, broth microdilution; conditions: Staphylococcus aureus
# Protocol: Antimicrobial susceptibility testing. The in vitro activities of the antibiotics are determined by the broth microdilution method as recommended by the National Committee for Clinical Laboratory Standards (NCCLS) (1). Mueller-Hinton II broth (MHBII)(BBL Cockeysville, Md.) is the medium employed in the testing procedures. Microtiter plates containing serial dilutions of each antimicrobial agent are inoculated with each organism to yield the appropriate density (10^5 CFU/ml) in a 100 μl final volume. The plates are incubated for 18-22 hours at 35° C. in ambient air. […] Standard Pharmacological Test Procedures
# Presented in Tables I-XIII are representative compounds of Formula I which were evaluated against a panel of 40 selected gram-positive and gram-negative bacteria strains by pre-incubation in water, mouse serum or human serum. Representative compounds were first incubated in mouse serum for an hour prior to the in vitro testing against a panel of selected gram-positive and gram-negative bacteria strains. All compounds were also pre-incubated in water for an hour prior to testing as control. Representative compounds of Formula I were incubated in human serum prior to MIC determination.
# E. coli GC 3226 = experiment: MIC, broth microdilution; conditions: Escherichia coli
# E. coli GC 2236 = experiment: MIC, broth microdilution; conditions: Escherichia coli
# E. coli GC 2270 = experiment: MIC, broth microdilution; conditions: Escherichia coli
# S. aureus GC 6335 = experiment: MIC, broth microdilution; conditions: Staphylococcus aureus
# P. aeruginosa GC 2214 = experiment: MIC, broth microdilution; conditions: Pseudomonas aeruginosa
# E. coli GC 2232 = experiment: MIC, broth microdilution; conditions: Escherichia coli
# E. faecium GC 2243 = experiment: MIC, broth microdilution; conditions: Enterococcus faecium
# E. coli GC 2234 = experiment: MIC, broth microdilution; conditions: Escherichia coli
# E. coli GC 2203 = experiment: MIC, broth microdilution; conditions: Escherichia coli
# E. coli = experiment: Range of MIC for E. coli strains; conditions: Escherichia coli
# E. coli GC 2233 = experiment: MIC, broth microdilution; conditions: Escherichia coli
# S. pyogenes GC 4563 = experiment: MIC, broth microdilution; conditions: Streptococcus pyogenes
# E. coli GC 2271 = experiment: MIC, broth microdilution; conditions: Escherichia coli
# S. aureus GC 6469 = experiment: MIC, broth microdilution; conditions: Staphylococcus aureus
# E. faecium GC 4556 = experiment: MIC, broth microdilution; conditions: Enterococcus faecium
# Staph. = experiment: Range of MIC for Staph. strains, including MRSA; conditions: Staphylococcus aureus
# E. coli GC 2231 = experiment: MIC, broth microdilution; conditions: Escherichia coli
# E. faecalis GC 2265 = experiment: MIC, broth microdilution; conditions: Enterococcus faecalis
# S. aureus GC 2216 = experiment: MIC, broth microdilution; conditions: Staphylococcus aureus
compound,measurement,setting,value
"CCCN(CC(=O)Nc1cc(N(C)C)c2c(c1O)C(=O)C1=C(O)[C@]3(O)C(=O)C(C(N)=O)=C(O)[C@@H](N(C)C)[C@@H]3C[C@@H]1C2)C(=O)OCOC(=O)c1ccsc1 [Example 27, ({[(2-{[(5aR,6aS,7S,10aS)-9-(aminocarbonyl)-4,7-bis(dimethylamino)-1,8,10a,11-tetrahydroxy-10,12-dioxo-5,5a,6,6a,7,10,10a,12-octahydrotetracen-2-yl]amino}-2-oxoethyl)(propyl)amino]carbonyl}oxy)methyl thiophene-3-carboxylate]",MIC,"S. aureus GC 6466; GC6466, read-out: MINIMAL INHIBITORY CONCENTRATION MIC, pre-incubated in Mouse Serum",0.12 µg/mL
same,MIC,"S. aureus GC 6466; GC6466, read-out: MINIMAL INHIBITORY CONCENTRATION MIC, pre-incubated in Water",0.25 µg/mL
same,MIC,"E. coli GC 3226; GC3226, read-out: MINIMAL INHIBITORY CONCENTRATION MIC, pre-incubated in Mouse Serum",0.5 µg/mL
same,MIC,"E. coli GC 3226; GC3226, read-out: MINIMAL INHIBITORY CONCENTRATION MIC, pre-incubated in Water",> 64 µg/mL
same,MIC,"E. coli GC 2236; GC2236, read-out: MINIMAL INHIBITORY CONCENTRATION MIC, pre-incubated in Mouse Serum",0.5 µg/mL
same,MIC,"E. coli GC 2236; GC2236, read-out: MINIMAL INHIBITORY CONCENTRATION MIC, pre-incubated in Water",64 µg/mL
same,MIC,"E. coli GC 2270; GC2270, read-out: MINIMAL INHIBITORY CONCENTRATION MIC, pre-incubated in Mouse Serum",0.5 µg/mL
same,MIC,"E. coli GC 2270; GC2270, read-out: MINIMAL INHIBITORY CONCENTRATION MIC, pre-incubated in Water",64 µg/mL
same,MIC,"S. aureus GC 6335; GC6335, read-out: MINIMAL INHIBITORY CONCENTRATION MIC, pre-incubated in Mouse Serum",0.25 µg/mL
same,MIC,"S. aureus GC 6335; GC6335, read-out: MINIMAL INHIBITORY CONCENTRATION MIC, pre-incubated in Water",0.5 µg/mL
same,MIC,"P. aeruginosa GC 2214; GC2214, read-out: MINIMAL INHIBITORY CONCENTRATION MIC, pre-incubated in Mouse Serum",8 µg/mL
same,MIC,"P. aeruginosa GC 2214; GC2214, read-out: MINIMAL INHIBITORY CONCENTRATION MIC, pre-incubated in Water",> 64 µg/mL
same,MIC,"E. coli GC 2232; GC2232, read-out: MINIMAL INHIBITORY CONCENTRATION MIC, pre-incubated in Mouse Serum",0.5 µg/mL
same,MIC,"E. coli GC 2232; GC2232, read-out: MINIMAL INHIBITORY CONCENTRATION MIC, pre-incubated in Water",64 µg/mL
same,MIC,"E. faecium GC 2243; GC2243, read-out: MINIMAL INHIBITORY CONCENTRATION MIC, pre-incubated in Mouse Serum",0.12 µg/mL
same,MIC,"E. faecium GC 2243; GC2243, read-out: MINIMAL INHIBITORY CONCENTRATION MIC, pre-incubated in Water",0.25 µg/mL
same,MIC,"E. coli GC 2234; GC2234, read-out: MINIMAL INHIBITORY CONCENTRATION MIC, pre-incubated in Mouse Serum",0.5 µg/mL
same,MIC,"E. coli GC 2234; GC2234, read-out: MINIMAL INHIBITORY CONCENTRATION MIC, pre-incubated in Water",64 µg/mL
same,MIC,"E. coli GC 2203; GC2203, read-out: MINIMAL INHIBITORY CONCENTRATION MIC, pre-incubated in Mouse Serum",0.5 µg/mL
same,MIC,"E. coli GC 2203; GC2203, read-out: MINIMAL INHIBITORY CONCENTRATION MIC, pre-incubated in Water",> 64 µg/mL
same,MIC,"E. coli; 20 h, read-out: Range of MIC, E. coli (Mouse Serum)",0.5 to 1 µg/mL
same,MIC,"E. coli; read-out: Minimum inhibitory concentration (MIC), E. coli (Human Serum)",4 to 16 µg/mL
same,MIC,"E. coli; read-out: Range of MIC, E. coli (mouse serum)",0.5 to 1 µg/mL
same,MIC,"E. coli GC 2233; GC2233, read-out: MINIMAL INHIBITORY CONCENTRATION MIC, pre-incubated in Mouse Serum",0.5 µg/mL
same,MIC,"E. coli GC 2233; GC2233, read-out: MINIMAL INHIBITORY CONCENTRATION MIC, pre-incubated in Water",64 µg/mL
same,MIC,"S. pyogenes GC 4563; GC4563, read-out: MINIMAL INHIBITORY CONCENTRATION MIC, pre-incubated in Mouse Serum",< 0.06 µg/mL
same,MIC,"S. pyogenes GC 4563; GC4563, read-out: MINIMAL INHIBITORY CONCENTRATION MIC, pre-incubated in Water",< 0.06 µg/mL
same,MIC,"E. coli GC 2271; GC2271, read-out: MINIMAL INHIBITORY CONCENTRATION MIC, pre-incubated in Mouse Serum",0.5 µg/mL
same,MIC,"E. coli GC 2271; GC2271, read-out: MINIMAL INHIBITORY CONCENTRATION MIC, pre-incubated in Water",64 µg/mL
same,MIC,"S. aureus GC 6469; GC6469, read-out: MINIMAL INHIBITORY CONCENTRATION MIC, pre-incubated in Mouse Serum",1 µg/mL
same,MIC,"S. aureus GC 6469; GC6469, read-out: MINIMAL INHIBITORY CONCENTRATION MIC, pre-incubated in Water",2 µg/mL
same,MIC,"E. faecium GC 4556; GC4556, read-out: MINIMAL INHIBITORY CONCENTRATION MIC, pre-incubated in Mouse Serum",0.5 µg/mL
same,MIC,"E. faecium GC 4556; GC4556, read-out: MINIMAL INHIBITORY CONCENTRATION MIC, pre-incubated in Water",1 µg/mL
same,MIC,"Staph.; MRSA, read-out: Range of MIC, Staph (Mouse Serum)",0.12 to 2 µg/mL
same,MIC,"Staph.; MRSA, read-out: Range of MIC, Staph (Water)",0.12 to 2 µg/mL
same,MIC,"Staph.; MRSA, read-out: Range of MIC, Staph. (mouse serum)",0.12 to 2 µg/mL
same,MIC,"Staph.; MRSA, read-out: Range of MIC, Staph. (water)",0.12 to 2 µg/mL
same,MIC,"Staph.; read-out: Minimum inhibitory concentration (MIC), Staph (Human Serum)",0.25 to 2 µg/mL
same,MIC,"Staph.; read-out: Minimum inhibitory concentration (MIC), Staph (Water)",0.5 to 4 µg/mL
same,MIC,"E. coli GC 2231; GC2231, read-out: MINIMAL INHIBITORY CONCENTRATION MIC, pre-incubated in Mouse Serum",1 µg/mL
same,MIC,"E. coli GC 2231; GC2231, read-out: MINIMAL INHIBITORY CONCENTRATION MIC, pre-incubated in Water",> 64 µg/mL
same,MIC,"E. faecalis GC 2265; GC2265, read-out: MINIMAL INHIBITORY CONCENTRATION MIC, pre-incubated in Mouse Serum",1 µg/mL
same,MIC,"E. faecalis GC 2265; GC2265, read-out: MINIMAL INHIBITORY CONCENTRATION MIC, pre-incubated in Water",2 µg/mL
same,MIC,"S. aureus GC 2216; GC2216, read-out: MINIMAL INHIBITORY CONCENTRATION MIC, pre-incubated in Mouse Serum",0.25 µg/mL
same,MIC,"S. aureus GC 2216; GC2216, read-out: MINIMAL INHIBITORY CONCENTRATION MIC, pre-incubated in Water",0.25 µg/mL
